Values after ≈ are worked out from the molar mass of the structure shown. Square brackets hold non-standard residues; d marks the D form. Peptide text beside a SMILES is read from it. * marks the point of attachment. Fumaryl(OMe) = COC(=O)/C=C/C(=O)*; Dap = NC[C@H](N)C(=O)O
Assays:
Candida albicans [1] = assay: Antifungal activity against Candida albicans AMB-25 incubated for 48 hrs by serial two-fold dilution method; type: functional
Candida albicans [2] = assay: Antifungal activity against Candida albicans ATCC 262 incubated for 24 hrs by turbidimetric method; type: functional
Candida albicans [3] = assay: Antifungal activity against Candida albicans incubated for 24 hrs by turbidimetric method; type: functional
Candida albicans [4] = assay: Antifungal activity against Candida albicans K335 by agar incorporation method; type: functional
Candida albicans [5] = assay: Antifungal activity against Candida albicans K341 by agar incorporation method; type: functional
Candida albicans [6] = assay: Antifungal activity against Candida albicans K1082 by agar incorporation method; type: functional
Candida albicans [7] = assay: Antifungal activity against Candida albicans K1133 by agar incorporation method; type: functional
[8] = system: Meyerozyma guilliermondii; assay: Antifungal activity against Candida guilliermondii K334 by agar incorporation method; type: functional
Candida tropicalis [9] = assay: Antifungal activity against Candida tropicalis K337 by agar incorporation method; type: functional
Candida tropicalis [10] = assay: Antifungal activity against Candida tropicalis K1155 by agar incorporation method; type: functional
Candida parapsilosis [11] = assay: Antifungal activity against Candida parapsilosis K332 by agar incorporation method; type: functional; conditions: Lodderomyces parapsilosis
Candida parapsilosis [12] = assay: Antifungal activity against Candida parapsilosis K1154 by agar incorporation method; type: functional; conditions: Lodderomyces parapsilosis
Cyberlindnera jadinii = assay: Antifungal activity against Candida utilis K482 by agar incorporation method; type: functional; conditions: Williopsis jadinii
Pichia kudriavzevii = assay: Antifungal activity against Candida krusei K1153 by agar incorporation method; type: functional
Candida albicans [13] = assay: Antifungal activity against Candida albicans Ca2323/ORF6.945 by CLSI method; type: functional
Candida albicans [14] = assay: Antifungal activity against Candida albicans Ca1055 by CLSI method; type: functional
Candida parapsilosis [15] = assay: Antifungal activity against Candida parapsilosis ATCC22019 by CLSI method; type: functional; conditions: Lodderomyces parapsilosis
[16] = Inhibition of Candida albicans IFO1060 1,3-beta-D-glucan synthase
[17] = Inhibition of fungi 1,3-beta-D-glucan synthase
Aspergillus fumigatus = assay: Antifungal activity against Aspergillus fumigatus CF1083 infected in iv dosed mouse model of pulmonary aspergillosis administered once daily for 4 days and measured on day 14; type: functional; conditions: 336 h, time 14 day

Work on `COC(=O)/C=C/C(=O)NC[C@H](NC(=O)[C@H](N)Cc1ccccc1)C(=O)O` yielded an MIC (Candida albicans [1]) of 0.4 µg/mL (≈ 1.1 µM).
For `COC(=O)/C=C/C(=O)NC[C@H](NC(=O)[C@H](N)C(C)C)C(=O)O`, the MIC (Candida albicans [1]) was 0.4 µg/mL (≈ 1.27 µM).
With `COC(=O)/C=C/C(=O)NC[C@H](NC(=O)[C@@H](N)CCSC)C(=O)N[C@@H](CCSC)C(=O)O` the MIC (Candida albicans [2]) was 0.025 µg/mL (≈ 0.0522 µM) and the MIC (Candida albicans [3]) was 0.025 µg/mL (≈ 0.0522 µM).
Compound `CCCCC/C=C/C=C/C(=O)OC[C@H]1O[C@@H](O[C@H]2[C@H](OC(=O)/C=C/C=C/C[C@H](O)/C(C)=C/C=C/CC[C@@H](C)CC)[C@@H](O)[C@@]3(OCc4cc(O)cc(O)c43)O[C@@H]2CO)[C@H](O)[C@@H](O)[C@H]1O` has an MIC (Candida albicans [4]) of 0.1 µg/mL (≈ 0.113 µM), an MIC (Candida albicans [5]) of 0.1 µg/mL (≈ 0.113 µM) and an MIC (Candida albicans [6]) of 0.1 µg/mL (≈ 0.113 µM). The MIC (Candida albicans [7]) was 0.1 µg/mL (≈ 0.113 µM), the MIC [8] was 0.1 µg/mL (≈ 0.113 µM) and the MIC (Candida tropicalis [9]) was 0.1 µg/mL (≈ 0.113 µM). The MIC (Candida tropicalis [10]) was 0.1 µg/mL (≈ 0.113 µM), the MIC (Candida parapsilosis [11]) was 0.1 µg/mL (≈ 0.113 µM) and the MIC (Candida parapsilosis [12]) was 0.1 µg/mL (≈ 0.113 µM). It also gave an MIC (Cyberlindnera jadinii) of 0.1 µg/mL (≈ 0.113 µM) and an MIC (Pichia kudriavzevii) of 0.1 µg/mL (≈ 0.113 µM).
Compound `CC[C@H](C)CC/C=C/C=C(\C)[C@@H](O)C/C=C/C=C/C(=O)O[C@H]1[C@H](O)[C@@H](CO)O[C@]2(OCc3cc(O)cc(O)c32)[C@@H]1O` has an MIC (Candida albicans [4]) of 0.1 µg/mL (≈ 0.174 µM), an MIC (Candida albicans [5]) of 0.1 µg/mL (≈ 0.174 µM) and an MIC (Candida albicans [6]) of 0.1 µg/mL (≈ 0.174 µM). It also gave an MIC (Candida albicans [7]) of 0.1 µg/mL (≈ 0.174 µM), an MIC [8] of 0.1 µg/mL (≈ 0.174 µM) and an MIC (Candida tropicalis [9]) of 0.1 µg/mL (≈ 0.174 µM). The MIC (Candida tropicalis [10]) was 0.1 µg/mL (≈ 0.174 µM), the MIC (Candida parapsilosis [11]) was 0.1 µg/mL (≈ 0.174 µM) and the MIC (Candida parapsilosis [12]) was 0.1 µg/mL (≈ 0.174 µM). For the same compound, the MIC (Cyberlindnera jadinii) was 0.1 µg/mL (≈ 0.174 µM) and the MIC (Pichia kudriavzevii) was 0.1 µg/mL (≈ 0.174 µM).
Work on `COC(=O)/C=C/C(=O)NC[C@H](NC(=O)CN)C(=O)O` yielded an MIC (Candida albicans [1]) of 0.4 µg/mL (≈ 1.46 µM).
Work on `COC(=O)/C=C/C(=O)NC[C@H](NC(=O)[C@H](C)NC(=O)[C@@H](N)CCSC)C(N)=O` yielded an MIC (Candida albicans [2]) of 0.025 µg/mL (≈ 0.0599 µM) and an MIC (Candida albicans [3]) of 0.025 µg/mL (≈ 0.0599 µM).
`CCCC(C)Oc1cccc(NC(=O)c2cccnc2)c1` (centres undefined) gave an MIC (Candida albicans [13]) of 4 µg/mL (≈ 14.1 µM), an MIC (Candida albicans [14]) of 4 µg/mL (≈ 14.1 µM) and an MIC (Candida parapsilosis [15]) of 8 µg/mL (≈ 28.1 µM).
With `COC(=O)/C=C/C(=O)NC[C@H](NC(=O)[C@H](N)CCSC)C(=O)O` the MIC (Candida albicans [1]) was 0.4 µg/mL (≈ 1.15 µM).
In the case of `CCCC(NC(=O)[C@@H](N)CCSC)C(=O)N[C@@H](CNC(=O)/C=C/C(=O)OC)C(N)=O` (some centres undefined), the MIC (Candida albicans [2]) is reported as 0.025 µg/mL (≈ 0.0561 µM) and the MIC (Candida albicans [3]) is reported as 0.025 µg/mL (≈ 0.0561 µM).
Work on `CCCCCCCCCCCCC[C@H]1OC(=O)[C@H](CCCN(CCN)CCN)NC(=O)[C@@H]([C@@H](C)O)NC(=O)CNC(=O)[C@H]([C@H](O)CC(N)=O)NC(=O)[C@H]2[C@@H](O)CCN2C(=O)[C@H]([C@@H](C)O)NC(=O)[C@@H]2C[C@@H](O)CN2C(=O)[C@H](C(C)C)NC(=O)[C@H](Cc2ccc(O)cc2)NC(=O)[C@@H](C)NC(=O)[C@H]([C@@H](C)O)NC1=O` yielded an IC50 [16] of 2 nM.
For `CCCC(NC(=O)[C@@H](N)CNC(=O)/C=C/C(=O)OC)C(=O)O` (some centres undefined), the MIC (Candida albicans [1]) was 0.4 µg/mL (≈ 1.27 µM).
In the case of `COC(=O)/C=C/C(=O)NC[C@H](N)C(=O)N[C@H](C(=O)O)C(C)C`, the MIC (Candida albicans [1]) is reported as 0.4 µg/mL (≈ 1.27 µM).
Work on `COC(=O)/C=C/C(=O)NC[C@H](N)C(=O)N[C@@H](C)C(=O)O` yielded an MIC (Candida albicans [1]) of 0.4 µg/mL (≈ 1.39 µM).
In the case of `COC(=O)/C=C/C(=O)NC[C@H](NC(=O)[C@@H](C)N)C(=O)O`, the MIC (Candida albicans [1]) is reported as 0.4 µg/mL (≈ 1.39 µM).
`COC(=O)/C=C/C(=O)NC[C@H](NC(=O)[C@H](CCSC)NC(=O)[C@@H](N)CCSC)C(N)=O` showed an MIC (Candida albicans [2]) of 0.025 µg/mL (≈ 0.0523 µM) and an MIC (Candida albicans [3]) of 0.025 µg/mL (≈ 0.0523 µM).
For `COC(=O)/C=C/C(=O)NC[C@H](NC(=O)[C@H](N)CC(C)C)C(=O)O`, the MIC (Candida albicans [1]) was 0.4 µg/mL (≈ 1.21 µM).
Work on `CCCCCCCCCCCCC[C@H]1OC(=O)[C@H](CCCN(CCCN)C(=O)[C@H](CCCN)N(CCN)CCN)NC(=O)[C@@H]([C@@H](C)O)NC(=O)CNC(=O)[C@H]([C@H](O)CC(N)=O)NC(=O)[C@H]2[C@@H](O)CCN2C(=O)[C@H]([C@@H](C)O)NC(=O)[C@@H]2C[C@@H](O)CN2C(=O)[C@H](C(C)C)NC(=O)[C@H](Cc2ccc(O)cc2)NC(=O)[C@@H](C)NC(=O)[C@H]([C@@H](C)O)NC1=O` yielded an IC50 [17] of 0.25 nM and an ED50 (Aspergillus fumigatus) of 5.2 mg/kg.
For `COC(=O)/C=C/C(=O)NC[C@H](NC(=O)[C@H](CCSC)NC(=O)[C@H](CCSC)NC(=O)[C@H](CCSC)NC(=O)[C@@H](N)CCSC)C(=O)O` (H-MMMM[Dap](Fumaryl(OMe))-OH), the MIC (Candida albicans [2]) was 0.025 µg/mL (≈ 0.0337 µM) and the MIC (Candida albicans [3]) was 0.025 µg/mL (≈ 0.0337 µM).
`COC(=O)/C=C/C(=O)NC[C@H](NC(=O)[C@H](CCSC)NC(=O)[C@H](CCSC)NC(=O)[C@@H](N)CNC(=O)/C=C/C(=O)OC)C(=O)O` (H-[Dap](Fumaryl(OMe))MM[Dap](Fumaryl(OMe))-OH) showed an MIC (Candida albicans [2]) of 0.025 µg/mL (≈ 0.0369 µM) and an MIC (Candida albicans [3]) of 0.025 µg/mL (≈ 0.0369 µM).
